Experimental data reported in patent publication US20250230138A1, “COMPOUNDS HAVING A T-STRUCTURE FORMED BY AT LEAST FOUR CYCLES FOR USE IN THE TREATMENT OF CANCER AND OTHER INDICATIONS” (TheRas, Inc., priority 2022, published 2025).
Like-named read-outs stand apart in the source and are kept apart here.

What was measured:
[1] = test system: pAKT in BT474 cells; assay: Cell-based pAKT HTRF assay in BT474 cells; settings: BT474 cells, 4 hr incubation, Compounds 10-999, read-out: pAKT inhibition IC50 in BT474 cells
Outline: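 pAKT was measured by HTRF after a 4 hr compound exposure in BT474 cells (DMEM, 10% FBS, 0.25% DMSO), using 9 concentrations from 3 μM in 3-fold steps. Cell lysates were incubated with the Eu cryptate/d2 antibody pair at room temperature for 4 to 24 h. The plate was then read at 320 nm excitation and 615 nm emission.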

[2] = target: Cys242 in human PIK3CA (157-299) (Homo sapiens (Human), UniProt P42336); assay: Covalent modification assay using MALDI-TOF MS; assay type: biochemical; settings: 4 h reaction time point; 3.33 μM protein target, 1:7.5 protein to compound ratio (compounds 1-852)
Sequence of Cys242 in human PIK3CA (157-299) (P42336 157-299): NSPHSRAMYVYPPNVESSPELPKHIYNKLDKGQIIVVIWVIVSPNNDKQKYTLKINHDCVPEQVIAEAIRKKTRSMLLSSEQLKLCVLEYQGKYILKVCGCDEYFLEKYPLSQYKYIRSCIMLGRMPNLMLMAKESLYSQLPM
Outline: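 PIK3CA (157-299) at 3.33 μM or 1 μM in 20 mM HEPES, 150 mM NaCl, 2 mM MgCl2, pH 7.3 was incubated with compound (from 10 mM DMSO stocks) in the dark at room temperature for 15 min, 30 min, 2 h or 4 h. Linear-mode MALDI-TOF peak heights gave percent modification.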

SMILES | IC50 [1] [nM] | % of modification [2] | IC50 ([1]; Homo sapiens, BT-474) [nM]
C=CC(=O)N1CC(n2cc(-c3nc(-c4ccc5c(c4)CNC(=O)C5)c4ccsc4c3-c3ccc[nH]c3=O)cn2)C1 [Compound 91] | > 3000 | D (percent of modification <25%) | 
C=CC(=O)N1CCC(n2cc(-c3nc(-c4ccc5c(c4)CCNC5)c4ccsc4c3-c3ccc(F)cc3C#N)cn2)CC1 [Compound 93] | > 3000 | C (25%≤percent of modification <50%) | 
C=CC(=O)N1CCC(n2cc(-c3nc(-c4ccc5c(c4)CS(=N)(=O)C5)c4ccsc4c3-c3ccc(F)cc3OCCOC)cn2)CC1 (centres unmarked) [Compound 94] | < 100 | A (percent of modification of PIK3CA protein ≥75%) | 
C=CC(=O)N1CC(n2cc(-c3nc(-c4ccc5c(c4)CS(=O)(=O)C5)c4ccsc4c3-c3ccc(F)cc3OC)cn2)C1 [Compound 95] | < 100 | A (percent of modification of PIK3CA protein ≥75%) | 
C=CC(=O)N1CCc2nc(-c3nc(-c4ccc5c(c4)CCNC5)c4c(c3-c3ccc(F)cc3OC)CCC4)sc2C1 [Compound 96, 1-[2-[4-(4-fluoro-2-methoxy-phenyl)-1-(1,2,3,4-tetrahydroisoquinolin-6-yl)-6,7-dihydro-5H-cyclopenta[c]pyridin-3-yl]-6,7-dihydro-4H-thiazolo[5,4-c]pyridin-5-yl]prop-2-en-1-one] |  | A (percent of modification of PIK3CA protein ≥75%) | 100 to 1000
C=CC(=O)N1CC(n2cc(-c3nc(-c4ccc5c(c4)CCNC5)c4c(c3-c3ccc(F)cc3OC)CCC4)cn2)C1 [Compound 97, 1-[3-[4-[4-(4-fluoro-2-methoxy-phenyl)-1-(1,2,3,4-tetrahydroisoquinolin-6-yl)-6,7-dihydro-5H-cyclopenta[c]pyridin-3-yl]pyrazol-1-yl]azetidin-1-yl]prop-2-en-1-one] |  | A (percent of modification of PIK3CA protein ≥75%) | 100 to 1000
C=CC(=O)N1CC(n2cc(-c3nc(N4CCC5(CC4)CNC5)c4ccsc4c3-c3ccc(F)cc3OCCOC)cn2)C1 [Compound 98] | 1000 to 3000 | A (percent of modification of PIK3CA protein ≥75%) | 
C=CC(=O)N1CCc2c(nc(-c3nc(-c4ccc5c(c4)CCNC5)c4ccsc4c3-c3ccc(F)cc3OCCOC)n2C)C1 [Compound 99] | < 100 | A (percent of modification of PIK3CA protein ≥75%) | 
C=CC(=O)N1CCc2nc(-c3nc(-c4ccc5c(c4)CCNC5)c4ccsc4c3-c3ccc(F)cc3OCCOC)n(C)c2C1 [Compound 100] | 100 to 1000 | A (percent of modification of PIK3CA protein ≥75%) | 
C=CC(=O)N1CCn2cc(-c3nc(-c4ccc5c(c4)CCNC5)c4ccsc4c3-c3ccc(F)cc3OCCOC)nc2C1 [Compound 101, 1-[2-[7-[4-fluoro-2-(2-methoxyethoxy)phenyl]-4-(1,2,3,4-tetrahydroisoquinolin-6-yl)thieno[3,2-c]pyridin-6-yl]-6,8-dihydro-5H-imidazo[1,2-a]pyrazin-7-yl]prop-2-en-1-one] |  | A (percent of modification of PIK3CA protein ≥75%) | < 100
C=CC(=O)N1CC(n2cc(-c3nc(-c4ccc5c(c4)CCNCC5)c4ccsc4c3-c3ccc(F)cc3OC)cn2)C1 [Compound 102] | 100 to 1000 | A (percent of modification of PIK3CA protein ≥75%) | 
C=CC(=O)N1CCc2ncc(-c3nc(-c4ccc5c(c4)CCNCC5)c4ccsc4c3-c3ccc(F)cc3OC)cc2C1 [Compound 103] | 100 to 1000 | A (percent of modification of PIK3CA protein ≥75%) | 
C=CC(=O)N1CC(n2cc(-c3nc(-c4ccc5c(c4)CCNC5)c4ncsc4c3-c3ccc(F)cc3OC)cn2)C1 [Compound 104, 1-[3-[4-[7-(4-fluoro-2-methoxy-phenyl)-4-(1,2,3,4-tetrahydroisoquinolin-6-yl)thiazolo[4,5-c]pyridin-6-yl]pyrazol-1-yl]azetidin-1-yl]prop-2-en-1-one] |  | A (percent of modification of PIK3CA protein ≥75%) | 100 to 1000
C=CC(=O)N1CCn2nc(-c3nc(-c4ccc5c(c4)CCNC5)c4ccsc4c3-c3ccc(F)cc3OCCOC)nc2C1 [Compound 105, 1-[2-[7-[4-fluoro-2-(2-methoxyethoxy)phenyl]-4-(1,2,3,4-tetrahydroisoquinolin-6-yl)thieno[3,2-c]pyridin-6-yl]-6,8-dihydro-5H-[1,2,4]triazolo[1,5-a]pyrazin-7-yl]prop-2-en-1-one] |  | A (percent of modification of PIK3CA protein ≥75%) | < 100
C=CC(=O)N1CC(n2cc(-c3nc(N4CC5(CCNCC5)CC4=O)c4ccsc4c3-c3ccc(F)cc3OCCOC)cn2)C1 [Compound 106] | > 3000 | C (25%≤percent of modification <50%) | 
C=CC(=O)N1CCc2nc(-c3nc(-c4ccc5c(c4)CCN(C)C5)c4ccsc4c3-c3ccc(F)cc3OCCOC)sc2C1 [Compound 107] | < 100 | A (percent of modification of PIK3CA protein ≥75%) | 

SMILES | IC50 [1] [nM] | % of modification [2] | IC50 ([1]; Homo sapiens, BT-474) [nM]
C=CC(=O)N1CC(n2cc(-c3nc(-c4ccc5c(c4)CCNC5)c4ccsc4c3-c3ccc(F)cc3F)cn2)C1 [Compound 108] | 100 to 1000 | A (percent of modification of PIK3CA protein ≥75%) | 
C=CC(=O)N1CC(n2cc(-c3nc(-c4ccc5c(c4)CCNC5)c4c(c3-c3ccc(F)cc3OCCOC)CCC4)cn2)C1 [Compound 109] | 100 to 1000 | A (percent of modification of PIK3CA protein ≥75%) | 
C=CC(=O)N1CC(n2cc(-c3nc(-c4ccc5c(c4)CCNC5)c4ccsc4c3-c3ccc(F)cc3OC)ccc2=O)C1 [Compound 110, 5-[7-(4-fluoro-2-methoxy-phenyl)-4-(1,2,3,4-tetrahydroisoquinolin-6-yl)thieno[3,2-c]pyridin-6-yl]-1-(1-prop-2-enoylazetidin-3-yl)pyridin-2-one] |  | A (percent of modification of PIK3CA protein ≥75%) | 100 to 1000
C=CC(=O)N1CCc2ncc(-c3nc(-c4ccc5c(c4)CS(=O)(=O)C5)c4ccsc4c3-c3ccc(F)cc3OCCOC)cc2C1 [Compound 111] | < 100 | A (percent of modification of PIK3CA protein ≥75%) | 
C=CC(=O)N1CCc2oc(-c3nc(-c4ccc5c(c4)CCNC5)c4ccsc4c3-c3ccc(F)cc3OC)nc2C1 [Compound 112, 1-[2-[7-(4-fluoro-2-methoxy-phenyl)-4-(1,2,3,4-tetrahydroisoquinolin-6-yl)thieno[3,2-c]pyridin-6-yl]-6,7-dihydro-4H-oxazolo[4,5-c]pyridin-5-yl]prop-2-en-1-one] |  | A (percent of modification of PIK3CA protein ≥75%) | 100 to 1000
CC#CC(=O)N1CC(n2cc(-c3nc(-c4ccc5c(c4)CCNC5)c4ccsc4c3-c3ccc(F)cc3OC)cn2)C1 [Compound 113] | > 3000 | D (percent of modification <25%) | 
C=C(F)C(=O)N1CC(n2cc(-c3nc(-c4ccc5c(c4)CCNC5)c4ccsc4c3-c3ccc(F)cc3OC)cn2)C1 [Compound 114] | 1000 to 3000 | A (percent of modification of PIK3CA protein ≥75%) | 
C=CC(=O)N1CCn2nc(-c3nc(-c4ccc5c(c4)CCNC5)c4ccsc4c3-c3ccc(F)cc3OCCOC)cc2C1 [Compound 115, 1-[2-[7-[4-fluoro-2-(2-methoxyethoxy)phenyl]-4-(1,2,3,4-tetrahydroisoquinolin-6-yl)thieno[3,2-c]pyridin-6-yl]-6,7-dihydro-4H-pyrazolo[1,5-a]pyrazin-5-yl]prop-2-en-1-one] |  | A (percent of modification of PIK3CA protein ≥75%) | < 100
C=CC(=O)N1CCc2nc(-c3nc(-c4ccc5c(c4)CS(=O)(=O)C5)c4ccsc4c3-c3ccc(F)cc3OCCOC)sc2C1 [Compound 116] | < 100 | A (percent of modification of PIK3CA protein ≥75%) | 
C=CC(=O)N1CCc2ncc(-c3nc(-c4cnc5c(c4)CNC(=O)C5)c4ccsc4c3-c3ccc(F)cc3OCCOC)cc2C1 [Compound 117] | < 100 | A (percent of modification of PIK3CA protein ≥75%) | 
C=CC(=O)N1CCc2nc(-c3nc(-c4ccc5c(c4)CCNC5=O)c4ccsc4c3-c3ccc(F)cc3OCCOC)sc2C1 [Compound 118, 6-[7-[4-fluoro-2-(2-methoxyethoxy)phenyl]-6-(5-prop-2-enoyl-6,7-dihydro-4H-thiazolo[5,4-c]pyridin-2-yl)thieno[3,2-c]pyridin-4-yl]-3,4-dihydro-2H-isoquinolin-1-one] |  | A (percent of modification of PIK3CA protein ≥75%) | < 100
C=CC(=O)N1CCc2nc(-c3nc(-c4cnc5c(c4)CNC(=O)C5)c4ccsc4c3-c3ccc(F)cc3OCCOC)sc2C1 [Compound 119] | < 100 | A (percent of modification of PIK3CA protein ≥75%) | 
C=CC(=O)N1CC(n2cc(-c3nc(-c4ccc5c(c4)CCNC5)c4ccsc4c3-c3ccc(F)cc3C(F)F)cn2)C1 [Compound 120] | 100 to 1000 | A (percent of modification of PIK3CA protein ≥75%) | 
C=CC(=O)N1CCc2nc(-c3nc(-c4ccc5c(c4)CCNCC5)c4ccsc4c3-c3ccc(F)cc3OCCOC)sc2C1 [Compound 121] | < 100 | A (percent of modification of PIK3CA protein ≥75%) | 
C=CC(=O)N1CC(n2cc(-c3nc(N4CCC5(CC4)COC5)c4ccsc4c3-c3ccc(F)cc3OCCOC)cn2)C1 [Compound 122] | 100 to 1000 | A (percent of modification of PIK3CA protein ≥75%) | 
